Results on three molecules are retold here after publication PMC8251916 (Chemistry (Weinheim an Der Bergstrasse, Germany), 2021).

Like-named read-outs stand apart in the source and are kept apart here.

Assay [1] relates to ds26-K+ (DNA, duplex) CAATCGGATCGAATTCGATCCGATTG
The assay is described as follows: UV-Vis titration. Particulars: independent/equivalent sites, 10 µM ligand, DNA up to 30 µM, apparent.

Assay [2] has as its system EBR1-K+ (mixed G4 from T. brucei). The assay is described as follows: UV-Vis titration, EBR1-K+. It is filed as binding. How it is done:
(§1) To obtain quantitative information on the binding of NDI 1 and PDI 3 to the previously assessed G4 and duplex DNA structures, ultraviolet‐visible absorbance spectroscopy (UV‐Vis) titrations were conducted (Figure 3 and S10). In all cases the ligand concentration was kept constant at 10 μM, whilst oligonucleotide was titrated in up to a final concentration of 30 μM. The observed binding isotherms were fitted to an independent/equivalent sites binding model, and binding constants (K a) were determined. […]
(§2) telo22-Na+ (antiparallel basket […]
(§3) telo23 and telo22 were selected as models for the human telomeric G-quadruplex under K+ and Na+ conditions, respectively, as they have been the subject of detailed structural studies,[S8,S9] […]
(§4) used. telo23 forms primarily a (3+1) hybrid structure under K+ conditions,[S8] whilst telo22 forms a single antiparallel fold.[S9]
(§5) The oligonucleotides were at a concentration of 5 µM and the buffers used were either potassium phosphate (100 mM, pH 7.4) for telo23-K+, EBR1-K+ and ds26-K+ or sodium phosphate (100 mM, pH 7.4) for telo22-Na+. […]
(§6) UV-Visible Absorbance Spectroscopy
(§7) Absorbance spectra were recorded on a Cary 60 UV-Visible (UV-Vis) spectrophotometer using a room-light immune fibre optic probe with 10 mm path length. […]
(§8) were corrected for background and buffer absorbance. […]

The subject of assay [3] is telo22-Na+ (antiparallel basket human telomeric G4). The assay is described as follows: UV-Vis titration, telo22-Na+. Format: binding. How it is done:
as §1, §2, §3, §4, §5, §6, §7, §8

The test system of assay [4] is telo23-K+ (DNA, G4) TAGGGTTAGGGTTAGGGTTAGGG
In words: UV-Vis titration. Particulars: independent/equivalent sites, 10 µM ligand, DNA up to 30 µM, apparent.

Assay [5] relates to ds26-K+ (self-complementary duplex). The assay is described as follows: UV-Vis titration, ds26-K+. It is filed as binding. How it is done:
as §1, §2, §3, §4, §5, §6, §7, §8

The subject of assay [6] is EBR1-K+ (DNA, G4) GGGCAGGGGGTGATGGGGAGGAGCCAGGG
The assay is described as follows: UV-Vis titration. Particulars: independent/equivalent sites, 10 µM ligand, DNA up to 30 µM, apparent.

Assay [7] has as its system telo23-K+ (hybrid type human telomeric G4). The assay is described as follows: UV-Vis titration, telo23-K+. It is filed as binding. Particulars: for Ka, telo23-K+: UV-Vis titration. How it is done:
as §1, §2, §3, §4
The oligonucleotides were at a concentration of 5 µM and the buffers used were either potassium phosphate (100 mM, pH 7.4) for telo23-K+, EBR1-K+ and ds26-K+ or sodium phosphate (100 mM, pH 7.4) for telo22-Na+. The reported spectrum for each sample represents the average of 3 scans and is baseline corrected for the buffer used. Data processing was carried out using Prism 7 (GraphPad Software) with a 4-point second order smoothing polynomial applied to all spectra. Observed ellipticities were converted to molar ellipticity.
as §6
Absorbance spectra were recorded on a Cary 60 UV-Visible (UV-Vis) spectrophotometer using a room-light immune fibre optic probe with 10 mm path length. The UV-Vis spectra were […]
were corrected for background and buffer absorbance. The oligonucleotides and buffer conditions were the same as employed in the CD experiments.
In the titrations, the concentration of ligand was fixed at 10 µM in an initial volume of 500 µL.
Aliquots of oligonucleotide were added using a microsyringe from a 100 µM stock solution in appropriate buffer containing also 10 µM ligand to maintain constant ligand concentration.
Note: the oligonucleotide solution was annealed by heating to 90 °C for 2 minutes and then cooling on ice prior to the addition of ligand (to avoid annealing in the presence of ligand).
Following addition, the solution was mixed thoroughly and the UV-visible spectrum was […]

For assay [8], the system named is telo22-Na+ (DNA, G4) AGGGTTAGGGTTAGGGTTAGGG
In words: UV-Vis titration. Particulars: independent/equivalent sites, 10 µM ligand, DNA up to 30 µM, apparent.

Assay [9] concerns F21T-K+ (human telomeric G-quadruplex, mixed parallel/hybrid). Particulars: 200 nM DNA, previously reported data for 1, cited from earlier work.
For assay [10], the system named is FmycT-K+ (c-Myc promoter G-quadruplex, parallel). Particulars: 200 nM DNA, previously reported data for 1, cited from earlier work.
For assay [11], the system named is F21T-Na+ (human telomeric G-quadruplex, antiparallel). Particulars: 200 nM DNA, previously reported data for 1, ref S16, cited from earlier work.
The test system of assay [12] is FMycT (DNA, G4) TTGAGGGTGGGTAGGGTGGGTAA
In words: FRET melting. Particulars: 1 mM K+, 99 mM Li+; 10 mM Li cacodylate; 5 µM ligand, 200 nM DNA.

The test system of assay [13] is telo22-Na+ (DNA, G4) AGGGTTAGGGTTAGGGTTAGGG
The assay is described as follows: NMR titration. Particulars: 70 mM NaCl; 25 mM sodium phosphate pH 7.0, 10% D2O, 298 K; 185 µM DNA, up to 2 equivalents.

Assay [14] has as its system F10T (DNA, hairpin, hexaethylene glycol (HEG) linker between 10 and 11) TATAGCTATATATAGCTATA
The assay is described as follows: FRET melting. Particulars: 10 mM K+, 90 mM Li+; 10 mM Li cacodylate; 5 µM ligand, 200 nM DNA.

Assay [15] concerns EBR1-K+ (DNA, G4) GGGCAGGGGGTGATGGGGAGGAGCCAGGG
The assay is described as follows: CD titration. Particulars: 20 °C, 5 µM DNA, up to 10 equivalents ligand.

For assay [16], the system named is F21T (DNA, G4) GGGTTAGGGTTAGGGTTAGGG
The assay is described as follows: FRET melting. Particulars: 10 mM Li cacodylate, 5 µM ligand, 200 nM DNA.

For orientation: ΔTm means the shift of the melting midpoint relative to a reference.

As for `CN1CCN(CCCN2C(=O)c3ccc4c5ccc6c7c(ccc(c8ccc(c3c48)C2=O)c75)C(=O)N(CCCN2CCN(C)CC2)C6=O)CC1` [Compound 3], the Ka in [1] is listed as 5×10^4; in assay [4], 2×10^6; in [6], 3×10^5; in assay [8], 8×10^5. Further, the “Ka, EBR1-K+” value in assay [2] is 3×10^5. Also, the “Ka, telo22-Na+” value in assay [3] was 8×10^5. Further, in [5], the “Ka, ds26-K+” value was 5×10^4. Moreover, in assay [7], the “Ka, telo23-K+” value is given as 2×10^6. Besides, the “selectivity for telo23-K+ G4 over EBR1-K+ G4” value in assay [7] (ratio of Ka, UV-Vis) is given as ~7 fold. Further, the “selectivity for telo23-K+ G4 over ds26-K+ duplex” value in [7] (ratio of Ka, UV-Vis) is reported as 40 fold.

Consider `CN1CCN(CCCN2C(=O)c3ccc4c5c(ccc(c35)C2=O)C(=O)N(CCCN2CCN(C)CC2)C4=O)CC1` [Compound 1], for which the Ka in assay [1] is 1×10^6; in assay [4], 6×10^6; in assay [6], 2×10^6; in [8] it was 6×10^4. In addition, the “Ka, EBR1-K+” value in assay [2] was 2×10^6. Further, the “Ka, telo22-Na+” value in assay [3] is reported as 6×10^4. In addition, the “Ka, ds26-K+” value in assay [5] was 1×10^6. Further, the “ΔTm F21T-K+” value in assay [9] (1 µM ligand, ref S16) is 10 ± 1 °C; in [9] (5 μM ligand), 14±2 °C; in [9] (10 µM ligand, ref S16), 20 ± 1 °C. The “Ka, telo23-K+” value in assay [7] is 6×10^6. Besides, the “ΔTm FmycT-K+” value in assay [10] (1 µM ligand, ref S16) is 0 ± 1 °C; in assay [10] (5 μM ligand), 7±2 °C; in [10] (10 µM ligand, ref S16), 13 ± 1 °C. Also, the “ΔTm F21T-Na+” value in assay [11] (1 µM ligand) was -2 ± 1 °C; in assay [11] (10 µM ligand), 2 ± 1 °C.

Turning to `CN1CCN(CCCNC(=O)c2ccc(Oc3ccc(C(C)(C)c4ccc(Oc5ccc(C(=O)NCCCN6CCN(C)CC6)c(C(=O)NCCCN6CCN(C)CC6)c5)cc4)cc3)cc2C(=O)NCCCN2CCN(C)CC2)CC1` [Compound 11], the ΔTm in assay [12] turned out to be 5±1 °C; in assay [14], 0±1 °C; in [16] (10 mM K+, 90 mM Li+), 7±2 °C; in assay [16] (100 mM Na+), 1±1 °C. In addition, the binding result in assay [13] and in assay [15] was “yes” each time.
